The source made the active and inactive calls. For most assays here, no stated cut-off is given here; in the data, actives have a measured EC50 and inactives only a lower limit.
Key:
[1] = target: T1, Cytochrome P450 1A2 (Homo sapiens, UniProt P05177);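 further: PubChem cytochrome P450 panel assay, CYP1A2 panel member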
T1 sequence (P05177 whole entry): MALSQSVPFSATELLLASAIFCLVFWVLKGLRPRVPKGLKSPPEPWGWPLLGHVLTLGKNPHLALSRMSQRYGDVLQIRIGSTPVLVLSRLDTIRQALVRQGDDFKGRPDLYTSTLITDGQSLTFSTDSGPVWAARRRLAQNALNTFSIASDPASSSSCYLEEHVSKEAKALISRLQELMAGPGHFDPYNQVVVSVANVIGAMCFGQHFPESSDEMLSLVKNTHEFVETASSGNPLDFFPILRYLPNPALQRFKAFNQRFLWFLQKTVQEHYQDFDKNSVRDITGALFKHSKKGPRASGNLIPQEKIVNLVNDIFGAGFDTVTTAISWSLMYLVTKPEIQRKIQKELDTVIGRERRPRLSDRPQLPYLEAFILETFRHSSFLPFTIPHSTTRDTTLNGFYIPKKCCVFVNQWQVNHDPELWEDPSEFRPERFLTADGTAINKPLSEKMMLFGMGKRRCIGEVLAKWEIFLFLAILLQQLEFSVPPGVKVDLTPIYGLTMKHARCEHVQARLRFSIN

[2] = test system: Streptococcus sp. 'group A'; test: Streptococcus pyogenes SK(-)GAS viability under kanamycin – luminescence, BacTiterGlo, confirmation, counter-screen for streptokinase expression inhibitor project, dose response (AID 1900); assay type: functional, organism-based
[3] = target: T2, Streptokinase A (Streptococcus pyogenes serotype M1, UniProt P10520); test: viability-normalized secreted streptokinase activity reduction – plasminogen activation absorbance, OD405, dose response (AID 1914); assay type: functional, Streptococcus pyogenes M1 GAS;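 further: secreted streptokinase activity via plasminogen activation per viability signal from cell pellet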
T2 sequence (P10520 whole entry): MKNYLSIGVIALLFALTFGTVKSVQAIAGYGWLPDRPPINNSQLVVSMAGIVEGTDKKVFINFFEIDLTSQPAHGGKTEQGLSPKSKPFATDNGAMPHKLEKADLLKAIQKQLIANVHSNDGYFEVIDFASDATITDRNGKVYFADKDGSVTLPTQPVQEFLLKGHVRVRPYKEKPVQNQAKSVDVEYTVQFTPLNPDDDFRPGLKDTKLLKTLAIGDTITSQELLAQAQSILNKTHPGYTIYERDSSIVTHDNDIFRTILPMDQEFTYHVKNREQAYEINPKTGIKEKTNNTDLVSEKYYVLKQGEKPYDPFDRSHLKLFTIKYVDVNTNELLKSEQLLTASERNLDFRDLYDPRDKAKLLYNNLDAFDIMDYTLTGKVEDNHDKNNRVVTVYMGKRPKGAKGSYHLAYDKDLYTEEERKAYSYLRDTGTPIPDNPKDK

[4] = test system: Streptococcus; test: GAS UMAA2166 growth inhibition – luminescence, BacTiterGlo, counter-screen for streptokinase expression inhibitor project, dose response (AID 1915); assay type: functional, organism-based;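 further: potency for reduction of bacterial viability or growth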
[5] = Trypanosoma cruzi growth suppression in host cells – NIH3T3 host cells, beta-gal luminescence, confirmation (AID 2044); assay type: functional, cell-based;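 further: intracellular parasites grown in NIH/3T3 mouse fibroblasts as host cells; luminescent beta-galactosidase reporter signal from transgenic T. cruzi replicating inside host cells; inhibitors lower the luminescence signal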
[6] = NIH3T3 cell viability loss – ATP luminescence, mouse fibroblasts, counter-screen, dose response (AID 2010); assay type: functional, cell-based;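 further: cells exposed to compound for about 90 hours before reading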
[7] = target: T3, RNA-binding protein pos-1 (Caenorhabditis elegans, UniProt G5EF15); test: disruptors of C. elegans POS-1 RNA interaction – biochemical, fluorescence polarization, dose response (AID 1964);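 further: purified POS-1 fused to maltose binding protein made in E. coli; potency of compounds blocking POS-1 binding to fluorescent RNA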
T3 sequence (G5EF15 whole entry): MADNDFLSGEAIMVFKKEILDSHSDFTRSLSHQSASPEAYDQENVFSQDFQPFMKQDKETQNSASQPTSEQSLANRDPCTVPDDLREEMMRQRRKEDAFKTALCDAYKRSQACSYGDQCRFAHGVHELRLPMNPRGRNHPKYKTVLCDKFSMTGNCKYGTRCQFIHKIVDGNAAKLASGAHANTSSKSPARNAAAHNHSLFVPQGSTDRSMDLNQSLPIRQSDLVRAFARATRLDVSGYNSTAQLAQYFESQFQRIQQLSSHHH

[8] = target: T4, Zinc finger protein mex-5 (Caenorhabditis elegans, UniProt Q9XUB2); test: potency of MEX-5 RNA-binding blockers – biochemical, C. elegans, fluorescence polarization, dose response (AID 1960)
T4 sequence (Q9XUB2 whole entry): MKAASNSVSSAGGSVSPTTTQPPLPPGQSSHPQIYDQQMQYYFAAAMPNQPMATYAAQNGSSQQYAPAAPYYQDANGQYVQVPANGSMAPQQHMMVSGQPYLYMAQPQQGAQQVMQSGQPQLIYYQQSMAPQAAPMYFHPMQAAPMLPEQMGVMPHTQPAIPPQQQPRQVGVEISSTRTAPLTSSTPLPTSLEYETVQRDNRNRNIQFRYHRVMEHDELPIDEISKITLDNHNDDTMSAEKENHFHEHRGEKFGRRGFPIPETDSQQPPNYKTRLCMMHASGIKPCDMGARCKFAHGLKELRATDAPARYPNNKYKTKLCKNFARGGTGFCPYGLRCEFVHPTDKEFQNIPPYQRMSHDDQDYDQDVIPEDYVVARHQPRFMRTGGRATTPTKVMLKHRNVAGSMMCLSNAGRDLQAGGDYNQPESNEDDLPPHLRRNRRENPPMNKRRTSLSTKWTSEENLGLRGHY

[9] = Luminescence Cell-Based Dose Retest to Confirm Inhibitors of Cancer Stem Cells. [Related pubchem assays (depositor defined):AID2717, AID2721]; assay type: functional; settings: Homo sapiens

Structure (SMILES) | EC50 [2] | EC50 [3] | EC50 [4] | also measured
CCCCCCCCCCCCCCCCCCc1ccc(C(=O)/C=C\C(=O)O)cc1 | – | – | – | AC50 [1]: 31.6 µM (inconclusive)
COc1cccc(N2C(=O)C3NN=C(C(=O)CN4C(=O)c5ccccc5C4=O)C3C2=O)c1 (stereo not given) | > 150 µM (not active) | > 150 µM (not active) | > 150 µM (not active) | –
Cc1[nH]c2ccc(F)cc2c1CCN(Cc1cccnc1)C(S)=Nc1cccc(F)c1 | – | – | – | EC50 [5]: 0.608 µM (active); EC50 [6]: > 30 µM (not active)
Cc1cccc(/C=C(\C(=O)C(=O)O)c2ccc3ccccc3n2)c1 | – | – | – | EC50 [7]: 27.2 µM (active); EC50 [8]: 22.9 µM (active)
Cc1ccccc1/C=N/Nc1nc2ccccc2[nH]1 | 146 µM (active) | > 150 µM (not active) | > 150 µM (not active) | –
O=C(/C=C/c1cccc(F)c1)NC1CCN(Cc2ccccc2)CC1 | – | – | – | EC50 [5]: 0.102 µM (active); EC50 [6]: > 60 µM (not active)
CCNc1ncc2nc(-c3cn(C)c4ccccc34)c(=O)n(C[C@H]3CCCO3)c2n1 | – | – | – | AC50 [1]: 10 µM (inconclusive)
O=C(NNC(=O)c1ccccc1[N+](=O)[O-])/C(O)=C/C(=O)c1ccccc1 | – | – | – | EC50 [7]: 70 µM (active); EC50 [8]: 1.11 µM (active)
CC(=O)c1ccc(N2CCN(S(=O)(=O)c3cc(-c4cc(C)no4)ccc3C(C)C)CC2)cc1 | – | – | – | AC50 [9]: < 0.16 µM (active)
COc1ccc(NC2=NN=C(c3c(C)[nH]c4ccccc34)CS2)cc1 | 3.9 µM (active) | > 150 µM (not active) | 13 µM (active) | AC50 [9]: 7.35 µM (active)
CC(C)(c1ccc(OC[C@@H]2CO2)cc1)c1ccc(OC[C@H]2CO2)cc1 | – | – | – | AC50 [1]: 31.6 µM (inconclusive)
COc1ccc(C2CC(C)(c3ccc(OC)cc3OC)Nc3ccccc3N2)c(OC)c1 (stereo not given) | – | – | – | EC50 [5]: 1.96 µM (active); EC50 [6]: > 60 µM (not active)
O=C(O)c1ccccc1N(c1ccccc1)c1ccccc1 | – | – | – | EC50 [7]: > 300 µM (not active); EC50 [8]: > 300 µM (not active)
CCN(CC)C1CCN(C(=O)c2cc(COc3ccc(F)cc3Cl)on2)C1 (stereo not given) | – | – | – | AC50 [9]: 1.21 µM (active)
Cc1cccc(OCCCOc2cccc3cccnc23)c1C | 16.9 µM (active) | > 150 µM (not active) | > 150 µM (not active) | –
CC(NNc1ccccc1)=C1C(=O)NC(=O)NC1=O | – | – | – | AC50 [9]: 1.02 µM (active)
Cc1cccc(/C=N/NC(=O)Cc2ccc(Cl)cc2)c1O | 4.52 µM (active) | – | 7.4 µM (active) | –
CCOC(=O)c1ccc(N2C(=O)/C(=C\NNC(=O)C3COc4ccccc4O3)c3ccccc3C2=O)cc1 (stereo not given) | 1.02 µM (active) | – | 4.31 µM (active) | –
CC12CN3CC(C)(CN(C1)C31CCSCC1)C2=O | – | – | – | AC50 [1]: 12.6 µM (inconclusive)
COc1cc2c(cc1NC(=O)CN(C)Cc1cccc(OC)c1OC)oc1ccccc12 | – | – | – | AC50 [9]: 2.86 µM (active)
O=C(N/N=C/c1cn(-c2cccs2)nc1-c1ccccc1)c1ccc(O)cc1 | – | – | – | AC50 [9]: 8.96 µM (active)
CC(=O)OCC1=C(C(=O)O)N2C(=O)C(NC(=O)CCn3nc(C)c(Cl)c3C)C2SC1 (stereo not given) | 2.13 µM (active) | – | 1.31 µM (active) | –
CC1CCN(c2ccccc2NC(=O)c2cc3ccccc3o2)CC1 | 8.15 µM (active) | 25.2 µM (active) | 42.4 µM (active) | –

Structure (SMILES) | EC50 [2] | EC50 [3] | EC50 [4] | also measured
C=CCc1cccc(/C=N/NC(=O)C(=O)Nc2ccc(C)cc2)c1O | > 150 µM (not active) | > 150 µM (not active) | > 150 µM (not active) | –
Cn1c(Sc2ccccc2Cl)c(C=O)c2ccccc21 | 27.1 µM (active) | 32.3 µM (inconclusive) | > 150 µM (not active) | –
O=C(NNC(=S)NC(=O)c1ccc(Br)cc1)c1cccc([N+](=O)[O-])c1 | 2.41 µM (active) | > 150 µM (not active) | 9.6 µM (active) | –
CCOC(=O)N1CCC(N2Cc3cccc(C(=O)Nc4ccc(F)cc4)c3C2=O)CC1 | 4.41 µM (active) | > 150 µM (not active) | > 150 µM (not active) | –
FC(F)(F)c1cccc(NC(S)=Nc2ccc(Cl)c(Cl)c2)c1 | 2.45 µM (active) | – | 6.78 µM (active) | –
O=C(Nc1cccc(Cl)c1N1CCCCC1)c1ccc2c(c1)OCCO2 | 9.41 µM (active) | > 150 µM (not active) | > 150 µM (not active) | AC50 [9]: 7.74 µM (active)
O=C(O)c1ccc(NC(=S)NC(=O)c2cccc(COc3ccccc3)c2)cc1 | 18.6 µM (active) | – | 38 µM (active) | –
CC[C@H]1OC(=O)C[C@@H](O)[C@H](C)[C@@H](O[C@@H]2O[C@H](C)C[C@H](N(C)C)[C@H]2O)[C@@H](CC=O)C[C@@H](C)C(=O)C=C[C@]2(C)O[C@H]2[C@@H]1C | < 0.06 µM (active) | – | < 0.06 µM (active) | –
Cc1ccc(CCNc2c([N+](=O)[O-])nn(-c3ccccc3)[n+]2[O-])cc1 | – | – | – | EC50 [5]: 1.15 µM (active); EC50 [6]: > 30 µM (not active)
C1CCC(C(C[C@@H]2CCCCN2)C2CCCCC2)CC1 | – | – | – | AC50 [1]: 6.31 µM (inconclusive)
Cc1ccc(C(=O)C(c2ccccc2)N2Cc3ccccc3C2=N)cc1 (stereo not given) | 5.37 µM (active) | 4.15 µM (active) | > 150 µM (not active) | –
CCOC(=O)N1CCC(n2c(SCC(=O)Nc3ccccc3OC)nc3ccccc3c2=O)CC1 | – | – | – | EC50 [5]: 5.24 µM (active); EC50 [6]: > 60 µM (not active)
CCOc1ccc(CN2CCN(Cc3[nH]c4ccc(OC)cc4c3C)CC2CCO)cc1 (stereo not given) | – | – | – | EC50 [5]: 0.141 µM (active); EC50 [6]: > 60 µM (not active)
Cc1cc(C)c(OCC(=O)Nc2ccccc2N2CCCCC2)c(C)c1 | 25.7 µM (active) | 4.09 µM (active) | 15.7 µM (active) | –
COC(=O)c1ccc(/C=C/c2c(-c3ccsc3)sc3ccccc23)cc1 | – | – | – | AC50 [9]: 4.12 µM (active)
c1ccc(N2N=C(c3cccs3)CC2c2ccco2)cc1 (stereo not given) | > 150 µM (not active) | 40.1 µM (active) | > 150 µM (not active) | –
CCCCn1c(=O)c(C(=O)NCCc2ccccc2)c(O)c2ccccc21 | 26.4 µM (active) | 30.9 µM (active) | > 150 µM (not active) | –
Cc1cc(SCC(=O)N/N=C/c2ccc(O)cc2O)nc2ccccc12 | – | – | – | EC50 [5]: 1.71 µM (active); EC50 [6]: 18.8 µM (active); AC50 [9]: 4.06 µM (active)
Cc1cccc(CN2CCN(C(c3ccccc3)c3ccc(Cl)cc3)CC2)c1 (stereo not given) [MECLIZINE DIHCL] | – | – | – | AC50 [9]: 3.57 µM (active)
CN(C)CCCN(C(=O)c1ccco1)c1nc2c(F)cc(F)cc2s1 | – | – | – | EC50 [5]: 0.101 µM (active); EC50 [6]: > 60 µM (not active)
O=C(N/N=C/c1c(O)ccc2ccccc12)Nc1ccccc1 | 8.29 µM (active) | – | 8.39 µM (active) | EC50 [8]: > 300 µM (not active)
FC(F)(F)c1cccc(NC(=S)Nc2ccc(Cl)c(Cl)c2)c1 | – | > 150 µM (not active) | – | –
